Laboratory results: paper PMC6522510 (Nature Communications, 2019)
Read-outs that look alike come from different tables or passages of the source.

Tests used:
Set-up in all cases: species or system AML cell lines (8); Primary HTS, single concentration about 10 uM, Cell Titer Glo viability; log10 luminescence, per cent inhibition relative to cycloheximide control
Conditions in all cases: 72 h, relative to cycloheximide control, log10 luminescence, inhibitor
[1] = test system: ML-2
[2] = test system: U937
[3] = test system: M07e
[4] = test system: MOLM-13
[5] = test system: CMK
[6] = test system: MV4-11
[7] = test system: CMS
[8] = test system: CHRF288-11

Compound | ML-2 %inh [1] [%] | U937 %inh [2] [%] | M07e %inh [3] [%] | MOLM-13 %inh [4] [%] | CMK %inh [5] [%] | MV4-11 %inh [6] [%] | CMS %inh [7] [%] | CHRF288-11 %inh [8] [%] | ML-2 %inh ([1]; ML-2 %inh, 10 µM) [%] | U937 %inh ([2]; U937 %inh, 10 µM) [%] | M07e %inh ([3]; M07e %inh, 10 µM) [%] | MOLM-13 %inh ([4]; MOLM-13 %inh, 10 µM) [%] | CMK %inh ([5]; CMK %inh, 10 µM) [%] | MV4-11 %inh ([6]; MV4-11 %inh, 10 µM) [%] | CMS %inh ([7]; CMS %inh, 10 µM) [%] | CHRF288-11 %inh ([8]; CHRF288-11 %inh, 10 µM) [%]
COc1c(N2CCNC(C)C2)c(F)cc2c(=O)c(C(=O)O)cn(C3CC3)c12 (centres unmarked) [SJ000286066-3, GATIFLOXACIN] | 1.743 | 2.127 | 0.9683 | 8.563 | 1.598 | -0.7209 | -1.278 | 7.116 |  |  |  |  |  |  |  | 
CC(=O)OCC(CCn1cnc2cnc(N)nc21)COC(C)=O [SJ000286077-3, FAMCICLOVIR] | -0.1732 | 2.68 | -1.801 | 3.343 | 3.857 | 1.495 | 3.04 | -0.6265 |  |  |  |  |  |  |  | 
O=C1[C@H](CC[C@H](O)c2ccc(F)cc2)[C@@H](c2ccc(O)cc2)N1c1ccc(F)cc1 [SJ000286078-3, EZETIMIBE] | 2.139 | 5.441 | 4.29 | 5.807 | 3.95 | 0.198 | 1.706 | 8.692 |  |  |  |  |  |  |  | 
C=CC1=C(C(=O)O)N2C(=O)[C@@H](NC(=O)/C(=N\O)c3csc(N)n3)[C@H]2SC1 [SJ000286082-3] | 2.212 | 3.234 | 3.525 | 11.38 | 1.925 | 0.05121 | 3.32 | 4.774 |  |  |  |  |  |  |  | 
CCCCC(=O)N(Cc1ccc(-c2ccccc2-c2nnn[nH]2)cc1)[C@H](C(=O)O)C(C)C [SJ000286083-3] |  |  |  |  |  |  |  |  | 1.672 | 1.517 | -3.413 | -0.1457 | -2.006 | -0.8771 | 1.896 | 2.31
CCCCC(=O)N(Cc1ccc(-c2ccccc2-c2nnn[nH]2)cc1)[C@H](C(=O)O)C(C)C [SJ000286083-4] |  |  |  |  |  |  |  |  | -0.2697 | -0.1303 | -1.607 | -2.877 | -2.819 | -5.399 | -1.191 | 3.369
Cc1cccc(Nc2ccncc2S(=O)(=O)NC(=O)NC(C)C)c1 [SJ000286085-4, TORSEMIDE] |  |  |  |  |  |  |  |  | -0.2644 | 0.4443 | 11.12 | 0.9883 | 4.671 | 3.27 | -0.4672 | 121.5
Cc1cccc(Nc2ccncc2S(=O)(=O)NC(=O)NC(C)C)c1 [SJ000286085-5, TORSEMIDE] |  |  |  |  |  |  |  |  | 1.771 | -1.512 | 1.697 | -1.664 | -7.265 | 0.9899 | -2.109 | 0.4254
C[C@]12CCC(=O)C=C1C=C[C@@H]1[C@@H]2CC[C@@]2(C)[C@H]1CC[C@@]21CCC(=O)O1 [SJ000286091-3, CANRENONE] | 3.227 | 3.254 | 2.621 | 5.53 | 0.4745 | 4.82 | 0.603 | 2.724 |  |  |  |  |  |  |  | 
CCOC(=O)[C@H](CCc1ccccc1)N[C@@H](C)C(=O)N1[C@H](C(=O)O)C[C@H]2CCCC[C@@H]21 [SJ000286095-3, TRANDOLAPRIL] | -0.1668 | 1.075 | 4.953 | 4.361 | -2.955 | 3.149 | -0.04443 | 2.18 |  |  |  |  |  |  |  | 
CN1CCN(C2=Nc3ccccc3Oc3ccc(Cl)cc32)CC1 [SJ000286106-7, LOXAPINE SUCCINATE] | 1.422 | 3.14 | 4.618 | 7.459 | -0.3035 | 2.165 | 1.134 | 14.63 |  |  |  |  |  |  |  | 
NS(=O)(=O)c1cc2c(cc1Cl)NC(C(Cl)Cl)NS2(=O)=O (centres unmarked) [SJ000286143-4, TRICHLORMETHIAZIDE] | -0.7669 | -14.58 | -1.321 | -1.049 | 3.577 | -3.026 | 0.3933 | 5.642 |  |  |  |  |  |  |  | 
CCCc1cc(=O)[nH]c(=S)[nH]1 [SJ000286145-4, PROPYLTHIOURACIL] | 1.023 | -0.4734 | 2.631 | -0.9508 | -4.099 | 0.3408 | -1.815 | 1.792 |  |  |  |  |  |  |  | 
C[C@]12CCC(=O)C=C1CC[C@@H]1[C@@H]2[C@@H](O)C[C@@]2(C)[C@H]1CC[C@]2(O)C(=O)COP(=O)(O)O [SJ000286156-3, HYDROCORTISONE SODIUM PHOSPHATE] | 0.191 | 5.176 | 0.6039 | 15.41 | 0.9258 | -4.752 | -1.283 | 4.933 |  |  |  |  |  |  |  | 
CCCCCCCCCCCCCCCCOP(=O)([O-])OCC[N+](C)(C)C [SJ000286181-3, MILTEFOSINE] | -0.1071 | -1.059 | 2.383 | 1.005 | -1.001 | -0.6681 | -1.205 | 1.656 |  |  |  |  |  |  |  | 
CN(C)C(=O)Oc1ccc[n+](C)c1 [SJ000286222-6, PYRIDOSTIGMINE BROMIDE] | 1.797 | 1.718 | 2.078 | -2.128 | -7.252 | -1.282 | -3.618 | -1.775 |  |  |  |  |  |  |  | 
CC(=O)O[C@]1(C(C)=O)CC[C@H]2[C@@H]3C=C(Cl)C4=CC(=O)[C@@H]5C[C@@H]5[C@]4(C)[C@H]3CC[C@@]21C [SJ000286483-6, CYPROTERONE ACETATE] | -2.366 | 1.732 | 0.443 | -1.163 | -1.818 | 2.562 | 2.38 | -0.8844 |  |  |  |  |  |  |  | 
CCCCC1=NC2(CCCC2)C(=O)N1Cc1ccc(-c2ccccc2-c2nnn[nH]2)cc1 [SJ000286674-2, IRBESARTAN] | 1.25 | -0.5514 | 0.4149 | 17.32 | 0.3545 | 1.017 | -2.028 | 1.638 |  |  |  |  |  |  |  | 
CC(C)=CCC/C(C)=C/CC/C(C)=C/CO [SJ000286702-2, FARNESOL] | 1.139 | -0.4236 | 1.694 | -0.6204 | -1.858 | -0.08153 | -1.627 | -1.355 |  |  |  |  |  |  |  | 
